Source: the NIST ThermoML archive (doi:10.1021/acs.jced.8b01250)
± gives the expanded uncertainty stated by the source.

Legend:
[1] = Molar enthalpy of transition or fusion; conditions: Crystal; DSC
[2] = Crystal; DSC

N#Cc1cccc([N+](=O)[O-])c1C#N [3-nitrophthalonitrile]
Molar enthalpy of transition or fusion [1]: 4.59 ± 0.194 kcal/mol | Triple point temperature [2]: 435.55 ± 1.2 K
